Columns and labels:
Assay type in all cases: cell-based
YAP-TEAD interaction = experiment: SK-HEP-1 reporter assay (8x TEAD responsive elements driving NanoLuc luciferase); conditions: Homo sapiens, SK-HEP1, SK-HEP-1 cells, 24 hour incubation
Outline: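 SK-HEP-1 cells carrying a stably integrated 8× TEAD-element NanoLuc reporter, seeded 24 h before dosing, were treated in duplicate with a 10-point dose series (top 30 μM final, 0.3% DMSO) for 24 h at 37°C, 5% CO2. Luciferase activity read by NanoGlo luminescence; IC50 derived from it.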

SW620 Yap KO cells = experiment: Viability assay in SW620 Yap KO (Yap independent) cells, CyQUANT; conditions: Homo sapiens, SW-620, SW620 YAP and TAZ knocked out (YAP independent), 96 hour incubation
Experimental: Viability Assay in NCI-H226 (Yap-Dependent) and SW620 Yap KO (Yap Independent) Cells
The ability of YAP-TEAD inhibitors to inhibit tumor cell growth was evaluated using two different cell lines: NCI-H226, which is a YAP dependent cell line, and SW620 cells, where YAP and TAZ were knocked out using CRISPR to generate a YAP independent cell line.
For the assay, cells were treated in duplicates with the test compounds in a 10-point dose, 1:3 dilution steps, with the top concentration starting at 30 μM (final concentration in assay). After a 96 hour incubation at 37° C., 95% rH, and 5% CO2, a cell-permeant DNA-binding dye that stains only healthy cells (CyQUANT®, Promega) was added to the cells, allowing the quantification of cell viability.
Cell Media: The NCI-H226 cells were cultured in the following media: RPMI 1640, +10% FBS, +1× GlutaMAX, +10 mM HEPES, +0.5% Pen/Strep. The SW620-KO cells were cultured in the following media: DMEM/F-12, +10% FBS, +1× GlutaMAX, +10 mM HEPES, +0.5% Pen/Strep.
Reagents: The reagents used are listed below:
Cell culture: The cells were examined using an inverted microscope to check for health, cell density, etc. To dissociate adherent cells, the monolayer of cells was washed once with pre-warmed PBS. After removing the PBS, 3 ml pre-warmed Accutase was added to a F75 flask, dispersed evenly and the flask was allowed to sit in incubator for ˜4-5 minutes.
When a single cell suspension was obtained, 7 ml of prewarmed growth media was added and resuspended with the cells. The cell suspension was transferred to a sterile 15 ml conical centrifuge tube, and spun for 5 min at 300×g, RT. The supernatant was discarded and the pellet was resuspended in 10 ml of pre-warmed growth media.
The total cell count was determined, and 20 μl of the desired cell number was added to each well of a 384 well plate using a Multidrop Combi. The plates were then incubated for 24 hours at 37° C., 95% rH, and 5% CO2.
Compound treatment: 24 hours after seeding, the cells were treated with compounds.
A 1:333 dilution of compounds, diluted in DMSO, was made to get a final concentration of 0.3% DMSO per well. To transfer the compounds to the assay plate, 120 nl was shot from Labcyte low dead volume plates to the cell plates containing 20 μl media/well with the ECHO 555 liquid handling system. After treatment, the cells were fed with 20 μl fresh pre-warmed assay media using a Multidrop combi.
The assay plates were then incubated for 96 h at 37° C., 95% rH, and 5% CO2.
96 h after treatment 30 μl of CyQuant® reagent was added to the assay plates using a Multidrop combi in the dark. The plates were then incubated for 1 hour at 37° C., 95% rH and 5% CO2. Thereafter, the assay plates were removed from the incubator and allowed to equilibrate to RT for 30 min in the dark without lid. Finally, they were measured using an EnVision microplate reader with a FITC bottom read program.

NCI-H226 cells = experiment: Viability assay in NCI-H226 (Yap-dependent) cells, CyQUANT; conditions: Homo sapiens, NCI-H226 YAP dependent cell line, 96 hour incubation, group symbols
Outline: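 Cells were seeded 24 h before dosing, then given a 10-point, 1:3 compound series from 30 μM final (0.3% DMSO) in duplicate. After 96 h at 37 °C, viability was read by CyQUANT DNA-dye fluorescence.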

[1] = n.d. (x) = not detectable below threshold x
[2] = number, or n.d. (x) = not detectable below threshold x

| SMILES | IC50 (YAP-TEAD interaction; group symbols) [nM] | IC50 (SW620 Yap KO cells; [1]) [nM] | IC50 (NCI-H226 cells) [nM] | IC50 (YAP-TEAD interaction; [2]) [nM] | IC50 (SW620 Yap KO cells; group symbols) [nM] |
| --- | --- | --- | --- | --- | --- |
| Cn1cc2c3cc(C(=O)O)sc3n(-c3ccc(C(F)F)cn3)c2n1 [Compound 117, 7-[5-(difluoromethyl)pyridin-2-yl]-4-methyl-9-thia-4,5,7-triazatricyclo[6.3.0.0^2,6]undeca-1(8),2,5,10-tetraene-10-carboxylic acid] | 100 to 10000 | > 30000 | 1000 to 10000 |  |  |
| Cc1nc2c3sc(C(=O)O)cc3n(-c3ccc(C(F)(F)F)cc3)c2s1 [Compound 22, 4-methyl-7-[4-(trifluoromethyl)phenyl]-5,11-dithia-3,7-diazatricyclo[6.3.0.0^2,6]undeca-1(8),2(6),3,9-tetraene-10-carboxylic acid] | 10 to 100 | > 30000 | 100 to 1000 |  |  |
| CNC(=O)c1cc2c3cn(C)nc3n(-c3ccc(OC(F)F)cn3)c2s1 [Compound 121, 7-[5-(difluoromethoxy)pyridin-2-yl]-N,4-dimethyl-9-thia-4,5,7-triazatricyclo[6.3.0.0^2,6]undeca-1(8),2,5,10-tetraene-10-carboxamide] |  | > 30000 | 1 to 100 | > 30000 |  |
| CNC(=O)c1cc2c3cn(C)nc3n(-c3ccc(C(F)F)cc3)c2s1 [Compound 100, 7-[4-(difluoromethyl)phenyl]-N,4-dimethyl-9-thia-4,5,7-triazatricyclo[6.3.0.0^2,6]undeca-1(8),2,5,10-tetraene-10-carboxamide] | 10 to 100 | > 30000 | 1 to 100 |  |  |
| Cn1cc2c3cc(C(=O)O)sc3n(-c3ccc(C(F)(F)F)cc3)c2n1 [Compound 19, 4-methyl-7-[4-(trifluoromethyl)phenyl]-9-thia-4,5,7-triazatricyclo[6.3.0.0^2,6]undeca-1(8),2,5,10-tetraene-10-carboxylic acid] | 1 to 10 | > 30000 | 1 to 100 |  |  |
| Cn1cc2c3cc(C(=O)N[C@@H](CO)c4ccccn4)sc3n(-c3ccc(C(F)(F)F)cc3)c2n1 [Compound 35, N-[(1R)-2-hydroxy-1-(pyridin-2-yl)ethyl]-4-methyl-7-[4-(trifluoromethyl)phenyl]-9-thia-4,5,7-triazatricyclo[6.3.0.0^2,6]undeca-1(8),2,5,10-tetraene-10-carboxamide] | 10 to 100 | > 3200 | 1 to 100 |  |  |
| Cn1nc2c3cc(C(=O)O)sc3n(-c3ccc(C(F)(F)F)cc3)c2n1 [Compound 95, 4-methyl-7-[4-(trifluoromethyl)phenyl]-9-thia-3,4,5,7-tetraazatricyclo[6.3.0.0^2,6]undeca-1(8),2,5,10-tetraene-10-carboxylic acid] | 1 to 10 | > 30000 | 1 to 100 |  |  |
| CNC(=O)c1cc2c3cn(C)nc3n(-c3ccc(C(F)(F)F)cn3)c2s1 [Compound 47, N,4-dimethyl-7-[5-(trifluoromethyl)pyridin-2-yl]-9-thia-4,5,7-triazatricyclo[6.3.0.0^2,6]undeca-1(8),2,5,10-tetraene-10-carboxamide] | 10 to 100 |  | 1 to 100 |  | 1000 to 10000 |
| CNC(=O)c1cc2c3cn(C)nc3n(-c3ccc(OC(F)(F)F)cc3)c2s1 [Compound 49, N,4-dimethyl-7-[4-(trifluoromethoxy)phenyl]-9-thia-4,5,7-triazatricyclo[6.3.0.0^2,6]undeca-1(8),2,5,10-tetraene-10-carboxamide] | 10 to 100 | > 3000 | 1 to 100 |  |  |
| C[C@H](CO)NC(=O)c1cc2c3cn(C)nc3n(-c3ccc(C(F)(F)F)cn3)c2s1 [Compound 48, N-[(2R)-1-hydroxypropan-2-yl]-4-methyl-7-[5-(trifluoromethyl)pyridin-2-yl]-9-thia-4,5,7-triazatricyclo[6.3.0.0^2,6]undeca-1(8),2,5,10-tetraene-10-carboxamide] |  |  | 1 to 100 | > 30000 | 10000 to 30000 |
| C[C@H](CO)NC(=O)c1cc2c3cn(C)nc3n(-c3ccc(OC(F)(F)F)cn3)c2s1 [Compound 126, N-[(2R)-1-hydroxypropan-2-yl]-4-methyl-7-[5-(trifluoromethoxy)pyridin-2-yl]-9-thia-4,5,7-triazatricyclo[6.3.0.0^2,6]undeca-1(8),2,5,10-tetraene-10-carboxamide] | 10 to 100 | > 30000 | 1 to 100 |  |  |
| Cn1cc2c3sc(C(=O)O)cc3n(C[C@H]3C[C@H](C(F)(F)F)C3)c2n1 [Compound 37, 10-methyl-7-{[(1r,3r)-3-(trifluoromethyl)cyclobutyl]methyl}-3-thia-7,9,10-triazatricyclo[6.3.0.0^2,6]undeca-1(11),2(6),4,8-tetraene-4-carboxylic acid] | 100 to 10000 | > 30000 | 1000 to 10000 |  |  |
| Cn1cc2c3cc(C(=O)N[C@H](CCO)c4cncs4)sc3n(-c3ccc(C(F)(F)F)cc3)c2n1 (single isomer, unassigned) [Compound 42] |  |  | 1000 to 10000 | > 9500 | 1000 to 10000 |
| CCNC(=O)c1cc2c3cn(C)nc3n(-c3ccc(C(F)(F)F)cc3)c2s1 [Compound 46, N-ethyl-4-methyl-7-[4-(trifluoromethyl)phenyl]-9-thia-4,5,7-triazatricyclo[6.3.0.0^2,6]undeca-1(8),2,5,10-tetraene-10-carboxamide] | 1 to 10 | > 3000 | 1 to 100 |  |  |
| CNC(=O)c1cc2c3cn(C)nc3n(-c3ccc(C(F)F)cn3)c2s1 [Compound 119, 7-[5-(difluoromethyl)pyridin-2-yl]-N,4-dimethyl-9-thia-4,5,7-triazatricyclo[6.3.0.0^2,6]undeca-1(8),2,5,10-tetraene-10-carboxamide] |  | > 30000 | 100 to 1000 | > 30000 |  |
| Cn1cc2c3cc(C(=O)NCc4cccnc4)sc3n(-c3ccc(C(F)(F)F)cc3)c2n1 [Compound 45, 4-methyl-N-[(pyridin-3-yl)methyl]-7-[4-(trifluoromethyl)phenyl]-9-thia-4,5,7-triazatricyclo[6.3.0.0^2,6]undeca-1(8),2,5,10-tetraene-10-carboxamide] |  |  | 1 to 100 | > 9500 | 1000 to 10000 |
| Cn1cc2c3sc(C(=O)O)cc3n(C[C@H]3C[C@@H](C(F)(F)F)C3)c2n1 [Compound 36, 10-methyl-7-{[(1s,3s)-3-(trifluoromethyl)cyclobutyl]methyl}-3-thia-7,9,10-triazatricyclo[6.3.0.0^2,6]undeca-1(11),2(6),4,8-tetraene-4-carboxylic acid] | 100 to 10000 | > 30000 | 100 to 1000 |  |  |
| C[C@H](CO)NC(=O)c1cc2c3cn(C)nc3n(-c3ccc(OC(F)F)cn3)c2s1 [Compound 123, 7-[5-(difluoromethoxy)pyridin-2-yl]-N-[(2R)-1-hydroxypropan-2-yl]-4-methyl-9-thia-4,5,7-triazatricyclo[6.3.0.0^2,6]undeca-1(8),2,5,10-tetraene-10-carboxamide] |  | > 30000 | 1 to 100 | > 300 |  |
| Cn1cc2c3cc(C(=O)O)sc3n(-c3ccc(OC(F)(F)F)cn3)c2n1 [Compound 118, 4-methyl-7-[5-(trifluoromethoxy)pyridin-2-yl]-9-thia-4,5,7-triazatricyclo[6.3.0.0^2,6]undeca-1(8),2,5,10-tetraene-10-carboxylic acid] | 10 to 100 | > 30000 | 100 to 1000 |  |  |
